Measurements taken from patent publication US20100004333A1, “COMPOSITIONS AND METHODS FOR TREATING CARDIOVASCULAR DISORDERS” (priority 2004, published 2010).
Marks after values point to notes of the source that are not given here.

Experiments:
apoE−/− mice [1] = assay: Atherosclerotic lesion size (morphometry) in apoE−/− mice on high fat diet with or without probucol; type: in vivo; settings: 24 weeks
From the text: (§1) Male C57BL/6J mice, homozygous for the disrupted apoE gene (apoE−/−) and originally purchased from Jackson Laboratories (Bar Harbor, Me.), were used at 8-10 weeks of age and then fed for 24 weeks ad libitum a high fat diet containing 21.2 (w/w) fat and 0.15% (w/w) cholesterol (specifications of the Harlan Teklad diet TD88137), without (controls, 103 mice) or with probucol (1% w/w, 87 mice), as described in Arteriosclerosis Thrombosis and Vascular Biology 2000, 20:e26-e33. The local animal ethics committee approved the study.
(§2) Procedures were carried out as described in Arteriosclerosis Thrombosis and Vascular Biology 2000, 20:e26-e33. For biochemistry, hearts and aortas past the femoral bifurcation were excised carefully (n=86 and 70 for control and probucol animals, respectively), cleaned, placed immediately in ice-cold buffer containing protease inhibitors and antibiotics, and then stored at −80° C. For histology, separate mice (n=17 each, for controls and probucol) were perfusion fixed, the hearts and aortas dissected and processed for blinded morphometry at the sinus, arch and descending thoracic and abdominal aorta, precisely as described in Arteriosclerosis Thrombosis and Vascular Biology 2000, 20:e26-e33. Mean areas from thoracic and abdominal aortas were similar and therefore combined and presented as a single value. For histology, sections at the sinus were taken ˜200 μm from the first appearance of the leaflets. Sections at the thoracic and abdominal aorta were taken at the branch point of the 3rd pair of intra-costal arteries and the celiac artery, respectively.
Data on lesion size are presented as mean±SEM and the effects of probucol analysed by the Mann-Whitney U-test. Biochemical parameters were compared using a one-way ANOVA or Mann-Whitney U-test. Data on total cell numbers, macrophages and collagen content are expressed as mean±SD, and significant differences between means evaluated using the Student's t-test. Statistical significance was accepted at p<0.05.

apoE−/− mice [2] = assay: Aortic biochemistry (non-oxidized lipids, α-tocopherol, oxidized lipids) in aortic segments of apoE−/− mice; type: in vivo; settings: 1% probucol, 24 weeks, mean ± SD; for Lipids: C: 4 pools; for Oxidized lipids: F2-isoprostanes / Oxidized lipids: F2-isoprostanes per arachidonate: ten sections
From the text: as §1, §2
For F2-isoprostanes, the thawed aortic segment (≈20 mg wet weight) was blotted dry, weighed and F2-isoprostanes analyzed by electron capture negative ionization GC/MS after solid-phase extraction and HPLC purification as described in Analytical Biochemistry 1999, 268:117-125, using [D4]-8-iso-prostaglandin F2α (Cayman Chemical) as internal standard. For arachidonate, phospholipids were separated by thin-layer chromatography, the fatty acid methyl esters then prepared and analyzed by GLC, as described in American Journal of Clinical Nutrition 2000, 71:1085-1094.
For other analytes, pooled aortic segments were homogenized and extracted as described in Journal of Lipid Research 1999, 40:1104-1112, and the organic phase analysed by HPLC with electrochemical (for α-tocopherol), UV (C and CE) and post-column chemiluminescence detection (CE-OOH) as described in Methods in Enzymology 1999, 299:362-375. CE-OOH were measured as a marker of primary lipoprotein lipid peroxidation as they are the primary and major lipid oxidation products formed in lipoproteins from apoE−/− mice undergoing oxidation in the presence of α-tocopherol. For total cholesterol and 7KC, separate 10 μL and 100 μL aliquots, respectively, of the re-dissolved organic extracts were saponified, and subjected to HPLC as described in Journal of Lipid Research 1997, 38:1730-1745. For 7KC, a silica column (0.46×15 cm, 120 Å, 5 μm, Supelco) with guard column (3 μm particle size) was eluted with hexane/isopropylalcohol/acetonitrile (94.8:4.6:0.6 v/v/v) at 1.0 mL/min and monitored at 234 nm. For all chromatographic analyses, compounds were quantified by area comparison using authentic standards.

[3] = versus 10.8 for octanol; cited from earlier work

## CC(C)(Sc1cc(C(C)(C)C)c(O)c(C(C)(C)C)c1)Sc1cc(C(C)(C)C)c(O)c(C(C)(C)C)c1 [probucol]
apoE−/− mice [1]; Arch, 1% probucol, mean ± SEM, 17 mice
  Lesion size: 121 ± 27^a μm^2 × 10^−3
apoE−/− mice [1]; Sinus, 1% (w/w) probucol in high fat diet, mean ± SEM, 17 mice
  Lesion size: 904 ± 56 μm^2 × 10^−3
apoE−/− mice [1]; Thoracic/Abdominal, 1% probucol, mean ± SEM, 17 mice
  Lesion size: 7 ± 2^a μm^2 × 10^−3
apoE−/− mice [1]; arch, 1% probucol
  Lesion size: 0.12±0.03 mm^2
apoE−/− mice [1]; arch, 1% probucol, not significant
  Inhibition of disease (lesion size) versus control: 36%
apoE−/− mice [1]; descending aorta, 1% probucol
  Lesion size: 7,300±2,400 μm^2
apoE−/− mice [1]; descending aorta, 1% probucol, p<0.0001
  Inhibition of disease (lesion size) versus control: 94%
apoE−/− mice [1]; sinus, 1% probucol
  Lesion size: 0.90±0.56 mm^2
apoE−/− mice [1]; sinus, 1% probucol, p<0.01
  Increase in lesion size versus control: 33%
apoE−/− mice [2]; Arch
  Antioxidants: α-Tocopherol: 1.6 ± 0.3^a nmol/mgp
  Lipids: C18:2: 33 ± 9^a nmol/mgp
  Lipids: C20:4: 17 ± 3^a nmol/mgp
  Oxidized lipids: 7KC: 0.20 ± 0.11 pmol/mgp
  Oxidized lipids: 7KC/total cholesterol: 0.25 ± 0.20 mmol/mol
  Oxidized lipids: CE-OOH: 143.8 ± 118.7 pmol/mgp
  Oxidized lipids: CE-OOH/CE: 2.70 ± 2.04 mmol/mol
  Lipids: C: 447 ± 71^a nmol/mgp
  Oxidized lipids: F2-isoprostanes: 0.35 ± 0.11 pmol/mgp
  Oxidized lipids: F2-isoprostanes per arachidonate: 10.4 ± 3.6 μmol/mol arachidonate
apoE−/− mice [2]; Sinus
  Antioxidants: α-Tocopherol: 3.0 ± 1.2 nmol/mgp
  Lipids: C18:2: 61 ± 11 nmol/mgp
  Lipids: C20:4: 33 ± 6 nmol/mgp
  Oxidized lipids: 7KC: 0.21 ± 0.11 pmol/mgp
  Oxidized lipids: 7KC/total cholesterol: 0.16 ± 0.06 mmol/mol
  Oxidized lipids: CE-OOH: 88.1 ± 26.6 pmol/mgp
  Oxidized lipids: CE-OOH/CE: 0.93 ± 0.12 mmol/mol
  Lipids: C: 928 ± 144 nmol/mgp
  Oxidized lipids: F2-isoprostanes: 0.39 ± 0.11 pmol/mgp
  Oxidized lipids: F2-isoprostanes per arachidonate: 8.6 ± 4.8 μmol/mol arachidonate
apoE−/− mice [2]; Thoracic/Abdominal
  Antioxidants: α-Tocopherol: 1.2 ± 0.2^a nmol/mgp
  Lipids: C18:2: 10 ± 5^a,b nmol/mgp
  Lipids: C20:4: 5.0 ± 1.4^a,b nmol/mgp
  Oxidized lipids: 7KC: 0.10 ± 0.04 pmol/mgp
  Oxidized lipids: 7KC/total cholesterol: 0.08 ± 0.02 mmol/mol
  Oxidized lipids: CE-OOH: 20.3 ± 8.1 pmol/mgp
  Oxidized lipids: CE-OOH/CE: 1.46 ± 0.72 mmol/mol
  Lipids: C: 215 ± 55^a nmol/mgp
  Oxidized lipids: F2-isoprostanes: 0.14 ± 0.04^a,b pmol/mgp
  Oxidized lipids: F2-isoprostanes per arachidonate: 3.8 ± 1.4^a,b μmol/mol arachidonate
[3]
  Partition coefficient between octanol and water: 10
